No end group written: not given here.
Tests used:
[1] = test system: Salmonella enterica serovar Paratyphi; experiment: Antibacterial activity, MIC100 broth dilution; type: cell-based; details: single peptide; MIC100, MH broth, about 10^6 CFU/ml, 37°C 20 h, absorbance 600 nm, triplicate
[2] = test system: Escherichian coli; details: 20 h
[3] = test system: Listeria monocytogenes; details: 20 h
[4] = test system: Staphilococcus aureus 007; details: 20 h
[5] = test system: Staphilococcus.aureus A170; details: single peptide; MIC100, MH broth, about 10^6 CFU/ml, 37°C 20 h, absorbance 600 nm, triplicate
[6] = test system: Staphilococcus .aureus A172; details: 20 h

Substance: KKYLLPIVGNLLKSLL-NH2 [TB-YK]
- MIC [1]: 20 µg/mL
- MIC [2]: 20 µg/mL
- MIC [3]: 10 µg/mL
- MIC [4]: 10 µg/mL
- MIC [5]: 20 µg/mL
- MIC [6]: 25 µg/mL

Source: PMC2747021, “Synergistic Antibacterial and Anti-Inflammatory Activity of Temporin A and Modified Temporin B In Vivo” (PLoS ONE, 2009)
